Assay results from ChEMBL document CHEMBL1146864, “Aryloxyethylamines: binding at alpha7 nicotinic acetylcholine receptors” (Bioorg Med Chem Lett, 2006).
pKi: −log10 of the molar value.

target: Neuronal acetylcholine receptor subunit alpha-7 (Rattus norvegicus, UniProt Q05941); test: Displacement of [125I]iodo-MLA from alpha-7 nAChR in rat cerebral cortex; assay type: tissue-based
Sequence (Q05941 whole entry): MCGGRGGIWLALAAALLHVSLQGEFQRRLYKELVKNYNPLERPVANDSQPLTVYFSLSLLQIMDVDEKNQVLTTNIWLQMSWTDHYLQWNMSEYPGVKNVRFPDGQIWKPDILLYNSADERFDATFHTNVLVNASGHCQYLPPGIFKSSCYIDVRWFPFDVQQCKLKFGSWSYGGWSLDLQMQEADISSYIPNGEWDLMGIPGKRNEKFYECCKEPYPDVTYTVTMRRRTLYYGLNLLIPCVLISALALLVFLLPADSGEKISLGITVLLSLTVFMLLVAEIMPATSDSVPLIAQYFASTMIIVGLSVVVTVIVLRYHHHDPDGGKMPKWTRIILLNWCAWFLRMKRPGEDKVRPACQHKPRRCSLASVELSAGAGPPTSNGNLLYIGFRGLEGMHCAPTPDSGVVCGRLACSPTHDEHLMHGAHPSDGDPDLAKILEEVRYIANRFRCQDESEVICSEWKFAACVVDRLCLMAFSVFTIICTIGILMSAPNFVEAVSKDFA

Structure (SMILES) | pKi
C[N+](C)(C)CCOc1cccnc1 | 6.55
C[N+](C)(C)CCOc1ccc(CCc2ccccc2)cc1 | 5.12
CN(C)CCOc1ccc(CCc2ccccc2)nc1 | < 5.00
C[N+](C)(C)CCOc1ccc(/C=C/c2ccccc2)cc1 | 5.66
CN(C)CCOc1ccc(/C=C/c2ccccc2)cc1 | < 5.00
CN(C)CCOc1ccc(CCc2ccccc2)cc1 | < 5.00
CN(C)CCOc1cccnc1 | < 5.00
CNC/C=C/c1cccnc1 | < 5.00
C[N+](C)(C)CCOc1ccccc1 | 5.96
C[N+](C)(C)CCOc1ccc(CCc2ccccc2)nc1 | 5.36
CNCCOc1cccnc1 | < 5.00
CNC/C=C\c1cccnc1 | < 5.00
CN(C)CCOc1ccc(/C=C/c2ccccc2)nc1 | < 5.00
CCN(C)CCOc1cccnc1 | < 5.00
C[N+](C)(C)CCOc1ccc(/C=C/c2ccccc2)nc1 | 5.90
CNCCCc1cccnc1 | < 5.00
C[N+](C)(C)CCCOc1cccnc1 | < 5.00
CN(C)CCOc1ccccc1 | < 5.00
CN1CCCC1c1ccc(CCc2ccccc2)nc1 (racemic) | < 5.00

system: not listed separately; test: Selectivity for alpha-7 over alpha4beta2

Structure (SMILES) | Selectivity ratio
C[N+](C)(C)CCOc1cccnc1 | 560
